{"source": "patent US20090017139A1", "about": "“Iodine therapy dosing for treating medical conditions” (priority 2007, published 2009)", "origin": "cited, not measured here", "key": {"[1]": {"details": "1.5 to more than 10 g/day for weeks at a time; cited from earlier work"}, "[2]": {"details": "male rats, 100 days; cited from earlier work"}, "[3]": {"details": "perchlorate 6 mg i.p., 2 hr predosing; cited from earlier work"}, "[4]": {"tested_on": "school age children", "details": "11 mg/d, 2.5 years later; cited from earlier work"}}, "data": [{"smiles": "[I-].[K+]", "note": "[potassium iodide]", "values": [{"measurement": "side effects", "setting": "[1]", "value": "few side effects are reported"}]}, {"smiles": "I", "note": "[iodide, reference compound]", "values": [{"measurement": "thyroid size", "setting": "[2]", "value": "Significant increases in thyroid size"}, {"measurement": "reduction of thyroidal uptake by perchlorate", "setting": "[3]", "value": "more than 90%"}]}, {"smiles": "[I-].[Na+]", "note": "[sodium iodide]", "values": [{"measurement": "incidence of goiter", "setting": "[4]", "value": 0.2, "unit": "%"}]}]}
